Laboratory results as given in ChEMBL document CHEMBL1146718, “Discovery of a potent, selective and orally active canine COX-2 inhibitor, 2-(3-difluoromethyl-5-phenyl-pyrazol-1-yl)-5-methanesulfonyl-pyridine” (Bioorg Med Chem Lett, 2004).

Legend:
[1] = in vivo; conditions: dog, po, 5 mg/kg
[2] = in vivo; conditions: dog, plasma, po, 5 mg/kg
[3] = in vivo; conditions: dog, po, 5 mg/kg; remark: listed apart in the source
[4] = in vivo; conditions: dog, po, 5 mg/kg; remark: listed apart in the source
[5] = in vivo; conditions: dog, plasma, po, 5 mg/kg; remark: listed apart in the source

concentration at 24 h [1] [ng/mL] | AUC [2] [ng·h/mL] | Tmax [3] [h] | half-life [4] [h] | Cmax [5] [ng/mL] | Structure (SMILES)
– | – | 1.5 | 26 | 1090 | CS(=O)(=O)c1ccc(-n2nc(C(F)F)cc2-c2ccccc2)nc1
77 | 4280 | 0.8 | 13.1 | 611 | CS(=O)(=O)c1ccc(-n2nc(C(F)(F)F)cc2-c2ccccc2)nc1
– | 3100 | – | 3.3 | 540 | Cc1ccc(-c2cc(C(F)(F)F)nn2-c2ccc(S(N)(=O)=O)cc2)cc1 [CELECOXIB]

Second part, the compound before the results:

Structure (SMILES) | concentration at 24 h [1] [ng/mL] | AUC [2] [ng·h/mL] | Tmax [3] [h] | half-life [4] [h] | Cmax [5] [ng/mL]
CS(=O)(=O)c1ccc(-n2nc(C(F)F)cc2-c2ccc(F)cc2)nc1 | 329 | 7650 | 1.3 | 17 | 509
CS(=O)(=O)c1ccc(-n2nc(C(F)(F)F)cc2-c2ccc(F)cc2)nc1 | 134 | 4820 | 0.8 | 17.5 | 540
